Literature values as cited in patent US20110039787A1, “COMPOSITIONS, KITS AND METHODS FOR TREATING BENIGN PROSTATE HYPERPLASIA” (priority 2009, published 2011).

Tested on: BPH
Conditions: cited from earlier work

Compound	IPSS change (maximum of known medicinal treatments, FIG. 2) (AUA Guideline on the Management of BPH (2006), historical comparison)	Maximum reduction in mean IPSS (preliminary study, European Urology 54 (2008) 170-180)
CCOc1ccccc1OCCN[C@H](C)Cc1ccc(OC)c(S(N)(=O)=O)c1 [Tamsulosin]	approximately −7.5	–
cetrorelix glucoronate	–	−5.4 to −5.9
